Data published in article PMC12259270, “Sensory neuron–expressed FGF13 controls nociceptive signaling in diabetic neuropathy models” (The Journal of Clinical Investigation, 2025).
Residues, ends and D or L forms follow the SMILES beside them. *: point of attachment. Cbz = O=C(OCc1ccccc1)*; OtBu = CC(C)(C)O*

Molecular target: T1, human Nav1.5 (Homo sapiens, UniProt Q14524)
T1 construct: expressed in transfected cells; host or cells: HEK293 stably expressing human Nav1.5
Assay: Whole-cell patch-clamp, HEK293 cells stably expressing human Nav1.5
Type: cell-based
Conditions: for Activation / Long-term inactivation, 2nd Pulse / Long-term inactivation, 3rd Pulse / Long-term inactivation, 4th Pulse / Peak Density / Steady state inactivation / Tau (τ): HEK293 Nav1.5
Description: Whole-cell patch clamp electrophysiology
HEK293-Nav1.7 cells, HEK293 stably expressing human Nav1.6 (HEK-Nav1.6), HEK293 stably expressing human Nav1.5 (HEK-Nav1.5), human hIPSC-derived sensory neurons (RealDRGTM from Anatomic Incorporated 1020F1-1M) and donor-derived DRG neurons were plated at low density on glass coverslips and processed for whole-cell patch clamp electrophysiology in voltage-clamp and/or current clamp mode. Whole-cell patch electrophysiological experiments were conducted following previously published studies (26). Current densities were obtained by dividing INa amplitude by membrane capacitance. Current –voltage relationships were generated by plotting current density as a function of the […]. Conductance (G Na) was calculated by the […]
where INa is the current amplitude at voltage Vm, and Erev is the Na+ reversal potential.
Activation curves were derived by plotting normalized GNa as a function of test potential and fitted using […]
Where GNa,Max is the maximum conductance, Va is the membrane potential of half-maximal activation, Em is the membrane voltage and k is the slope factor. For steady -state inactivation, normalized current amplitude (INa/INa,Max) at the test potential was plotted as a function of prepulse potential (Vm) and fitted using the […]
Where Vh is the potential of half-maximal inactivation, E m is the membrane voltage, and k is the slope factor.
Transient INa inactivation decay was estimated with the standard exponential equation. Inactivation time constant (tau, τ) was fitted with the following equation: […]
where I(t) is the amplitude of the current at time t and Iss is the steady-state current during a single voltage-step.
The goodness of fitting was determined by correlation coefficient (R), and the cutoff of R was set at 0.85. To observe effects on long-term inactivation (LTI), a four-step protocol was employed during which cells were subjected to four 0 mV, 20 ms depolarization pulses separated by −90 mV, 40 ms recovery intervals. To control for various cell sizes, the current densities were calculated by dividing INa peak current amplitude/membrane capacitance (Cm). To represent the fraction of channels entering into LTI, the peak INa observed during depolarization cycles 2-4 was normalized to the peak INa observed during depolarization cycle 1 (INa/INa,Cycle 1) and plotted as a function of the depolarization cycle.
The cumulative (frequency-dependent) use-dependency was determined by applying 20 pulses with a depolarization to −10 mV (50 ms duration) and 50 ms recovery intervals with a train of 20 pulses at 10 Hz from a holding potential at -70 mV. The current pulses were normalized to the first reco rded pulse and the currents at the 2nd to 20th pulses were compared. The same train was used to record use-dependency at various frequencies […]
The rate of recovery from inactivation was recorded at -80 mV with a standard repriming voltage protocol.
The cells were prepulsed to -20 mV for 20 ms to inactivate all currents, then driven back to the recovery potential (Vrec) for increasing recovery durations before the test pulse to 0 mV. The maximum pulse rate was 0.5 Hz. The […]
follows previous publications (16). The time constants were estimated from single exponential decay to time courses measured at recovery potentials ranging from -140 to -60 mV with the protocol as mentioned above.
Electrophysiological Recordings
HEK293 cells: Electrophysiological recordings in HEK293 stably expressing Nav1.7 (HEK-Nav1.7), Nav1.5 (HEK-Nav1.5) or Nav1.6 (HEK-Nav1.6) were performed at room temperature using a MultiClamp 700B or an Axopatch 200B amplifier (Molecular Devices) after incubating coverslips for 60 minutes either with 0.1% DMSO or 50 μM PW164 or ZL192 in the extracellular solution. The composition of recording solutions consisted of the […]
following salts: extracellular (mM): 140 NaCl, 3 KCl, 1 MgCl2, 1 CaCl2, 10 HEPES, 10 glucose, pH 7.3; […]
intracellular (mM): 130 CH3O3 SCs, 1 EGTA, 10 NaCl, 10 HEPES, pH 7.3. […]

T1 sequence (Q14524 whole entry): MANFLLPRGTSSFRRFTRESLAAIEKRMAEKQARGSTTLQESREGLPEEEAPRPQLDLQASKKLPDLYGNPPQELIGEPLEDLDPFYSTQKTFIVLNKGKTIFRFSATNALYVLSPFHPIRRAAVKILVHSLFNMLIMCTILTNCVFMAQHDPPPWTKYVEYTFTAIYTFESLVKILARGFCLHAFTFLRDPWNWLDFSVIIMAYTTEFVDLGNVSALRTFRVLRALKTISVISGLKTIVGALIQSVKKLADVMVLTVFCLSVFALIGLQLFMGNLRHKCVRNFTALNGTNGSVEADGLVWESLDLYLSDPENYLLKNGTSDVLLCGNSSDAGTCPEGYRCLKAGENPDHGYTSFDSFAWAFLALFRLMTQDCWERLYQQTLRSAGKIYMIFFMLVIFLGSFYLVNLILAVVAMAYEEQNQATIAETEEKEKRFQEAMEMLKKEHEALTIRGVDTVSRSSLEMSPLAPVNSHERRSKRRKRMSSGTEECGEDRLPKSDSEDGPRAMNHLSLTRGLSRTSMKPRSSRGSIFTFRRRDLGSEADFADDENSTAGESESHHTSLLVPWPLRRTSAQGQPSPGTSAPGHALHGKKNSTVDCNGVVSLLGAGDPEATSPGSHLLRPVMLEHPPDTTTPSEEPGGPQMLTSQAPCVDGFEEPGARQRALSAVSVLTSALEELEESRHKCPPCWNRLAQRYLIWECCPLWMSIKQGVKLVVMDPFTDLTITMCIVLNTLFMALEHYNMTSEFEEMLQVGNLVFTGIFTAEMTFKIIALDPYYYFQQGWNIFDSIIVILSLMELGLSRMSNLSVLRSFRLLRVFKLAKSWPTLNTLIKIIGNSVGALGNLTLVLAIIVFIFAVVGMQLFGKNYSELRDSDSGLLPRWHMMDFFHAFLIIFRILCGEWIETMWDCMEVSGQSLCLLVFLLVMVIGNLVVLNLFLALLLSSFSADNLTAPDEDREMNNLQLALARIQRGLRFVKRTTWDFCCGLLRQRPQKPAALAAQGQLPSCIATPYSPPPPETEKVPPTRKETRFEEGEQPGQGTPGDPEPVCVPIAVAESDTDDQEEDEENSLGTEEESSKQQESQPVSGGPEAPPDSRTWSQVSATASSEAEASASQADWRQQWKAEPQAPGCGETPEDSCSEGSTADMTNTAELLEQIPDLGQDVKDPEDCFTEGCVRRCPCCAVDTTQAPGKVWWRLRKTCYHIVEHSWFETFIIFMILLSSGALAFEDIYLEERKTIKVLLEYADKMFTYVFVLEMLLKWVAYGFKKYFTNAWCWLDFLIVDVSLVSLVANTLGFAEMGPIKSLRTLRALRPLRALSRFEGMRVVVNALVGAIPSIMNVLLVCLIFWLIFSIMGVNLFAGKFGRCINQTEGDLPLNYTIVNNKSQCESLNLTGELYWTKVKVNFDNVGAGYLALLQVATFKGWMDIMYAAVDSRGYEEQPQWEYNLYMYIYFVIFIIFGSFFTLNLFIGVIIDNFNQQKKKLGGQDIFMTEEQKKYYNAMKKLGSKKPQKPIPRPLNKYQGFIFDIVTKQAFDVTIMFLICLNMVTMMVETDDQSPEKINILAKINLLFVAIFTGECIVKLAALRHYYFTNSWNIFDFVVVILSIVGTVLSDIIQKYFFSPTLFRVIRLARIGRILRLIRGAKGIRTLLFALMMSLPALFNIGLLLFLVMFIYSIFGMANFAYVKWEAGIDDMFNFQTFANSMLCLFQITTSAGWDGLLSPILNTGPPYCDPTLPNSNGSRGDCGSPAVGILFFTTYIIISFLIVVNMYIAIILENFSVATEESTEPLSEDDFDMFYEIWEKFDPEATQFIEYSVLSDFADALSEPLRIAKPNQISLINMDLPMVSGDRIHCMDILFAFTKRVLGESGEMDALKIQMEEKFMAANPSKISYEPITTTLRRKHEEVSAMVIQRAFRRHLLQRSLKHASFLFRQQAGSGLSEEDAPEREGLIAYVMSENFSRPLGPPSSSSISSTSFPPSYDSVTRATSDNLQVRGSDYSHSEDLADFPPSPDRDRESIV

`COC(=O)[C@@H](NC(=O)[C@H](CCC(=O)OC(C)(C)C)NC(=O)[C@H](CC(C)C)NC(=O)[C@@H]1CCCN1C(=O)OCc1ccccc1)C(C)C` [PW164] (Cbz-PLE(OtBu)V-OMe) was tested, and the Activation (FGF13-GFP + PW164) was −37.38 ± 2.1 mV, the “Long-term inactivation, 2nd Pulse” value (FGF13-GFP + PW164) was −89.1 ± 1.71 % maximal Na+ current and the “Long-term inactivation, 3rd Pulse” value (FGF13-GFP + PW164) was −86.58 ± 1.69 % maximal Na+ current. The “Long-term inactivation, 4th Pulse” value (FGF13-GFP + PW164) was −84.72 ± 1.83 % maximal Na+ current, the Peak Density (FGF13-GFP + PW164) was −203.0 ± 15.6 pA/pF and the Steady state inactivation (FGF13-GFP + PW164) was −75.9 ± 2.1 mV. The “Tau (τ)” value (FGF13-GFP + PW164) was 0.90 ± 0.04 ms, the Activation (GFP + PW164) was −38.11 ± 1.8 mV and the “Long-term inactivation, 2nd Pulse” value (GFP + PW164) was −91.7 ± 1.27 % maximal Na+ current. For the same compound, the “Long-term inactivation, 3rd Pulse” value (GFP + PW164) was −85.98 ± 2.18 % maximal Na+ current, the “Long-term inactivation, 4th Pulse” value (GFP + PW164) was −84.62 ± 2.28 % maximal Na+ current and the Peak Density (GFP + PW164) was −314.9 ± 17.9 pA/pF. For the same compound, the Steady state inactivation (GFP + PW164) was −82.7 ± 1.5 mV, the “Tau (τ)” value (GFP + PW164) was 1.12 ± 0.07 ms and the “activity on Nav1.5 currents” value (Nav1.5-expressing HEK293 cells alone or with FGF13-1b or FGF13-1a) was “inactive”.
